Test results as given in PubChem BioAssay AID1963440 (Molecular Pharmacology Branch, DTP, NCI, 2024).

Tested on: NCI-H1417 complex spheroids, growth % test/control
Experiment: Anticancer human tumor NCI-H1417 cell line growth inhibition [Asc];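 also: spheroids exposed to compounds for 7 days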;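 as to viability, T/C: 100% = DMSO vehicle control wells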
Details: for IC50: curve of first compound; for viability, T/C: stronger effect = lower value
Summary of the method: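 Concentration series start at each agent's clinical Cmax, or at 10 microM when none is established, and drop in half-log steps; agents are applied alone or together to complex spheroids built with HUVEC and hMSC.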

IC50 (second compound 0.01 µM): > 3 µM
IC50 (second compound 0.0316 µM): > 3 µM
IC50 (second compound 0.1 µM): > 3 µM
IC50 (second compound 0.316 µM): > 3 µM
IC50 (second compound 1 µM): > 3 µM
Structure (SMILES): CCN1C(C(=O)NC23CCC(C(=O)O)(CC2)CC3)C(c2cccc(Cl)c2F)C2(C(=O)Nc3cc(Cl)ccc32)C12CCCCC2 (stereo not given) + CNC(C)C(=O)NC1CN(S(=O)(=O)c2cccc(S(=O)(=O)N3CCC4CCC(C(=O)NC(c5ccccc5)c5ccccc5)N4C(=O)C(NC(=O)C(C)NC)C3)c2)CCC2CCC(C(=O)NC(c3ccccc3)c3ccccc3)N2C1=O
viability, T/C (second compound 0.01 µM, first compound 0.00949 µM): 105%
viability, T/C (second compound 0.01 µM, first compound 0.03 µM): 104%
viability, T/C (second compound 0.01 µM, first compound 0.0949 µM): 105%
viability, T/C (second compound 0.01 µM, first compound 0.3 µM): 99.7%
viability, T/C (second compound 0.01 µM, first compound 0.949 µM): 106%
viability, T/C (second compound 0.01 µM, first compound 3 µM): 120%
viability, T/C (second compound 0.0316 µM, first compound 0.00949 µM): 107%
viability, T/C (second compound 0.0316 µM, first compound 0.03 µM): 118%
viability, T/C (second compound 0.0316 µM, first compound 0.0949 µM): 106%
viability, T/C (second compound 0.0316 µM, first compound 0.3 µM): 86%
viability, T/C (second compound 0.0316 µM, first compound 0.949 µM): 101%
viability, T/C (second compound 0.0316 µM, first compound 3 µM): 96.2%
viability, T/C (second compound 0.1 µM, first compound 0.00949 µM): 103%
viability, T/C (second compound 0.1 µM, first compound 0.03 µM): 102%
viability, T/C (second compound 0.1 µM, first compound 0.0949 µM): 99.7%
viability, T/C (second compound 0.1 µM, first compound 0.3 µM): 88.6%
viability, T/C (second compound 0.1 µM, first compound 0.949 µM): 95.7%
viability, T/C (second compound 0.1 µM, first compound 3 µM): 120%
viability, T/C (second compound 0.316 µM, first compound 0.00949 µM): 105%
viability, T/C (second compound 0.316 µM, first compound 0.03 µM): 95.1%
viability, T/C (second compound 0.316 µM, first compound 0.0949 µM): 105%
viability, T/C (second compound 0.316 µM, first compound 0.3 µM): 102%
viability, T/C (second compound 0.316 µM, first compound 0.949 µM): 104%
viability, T/C (second compound 0.316 µM, first compound 3 µM): 108%
viability, T/C (second compound 1 µM, first compound 0.00949 µM): 110%
viability, T/C (second compound 1 µM, first compound 0.03 µM): 108%
viability, T/C (second compound 1 µM, first compound 0.0949 µM): 106%
viability, T/C (second compound 1 µM, first compound 0.3 µM): 108%
viability, T/C (second compound 1 µM, first compound 0.949 µM): 95.4%
viability, T/C (second compound 1 µM, first compound 3 µM): 106%
